ChEMBL document CHEMBL5518181, “Studies of antibacterial activity (in vitro and in vivo) and mode of action for des-acyl tridecaptins (DATs)” (Eur J Med Chem, 2024)
Converted amounts (≈) assume the structure as drawn.

Legend:
[1] = Hydrophobicity of compound assessed as %MeCN at peak elution by RP-HPLC analysis; type: physicochemical
[2] = tested on: Klebsiella pneumoniae; test: Antibacterial activity against wild-type Klebsiella pneumoniae ATCC 13883 assessed as inhibition of bacterial growth incubated for 18 hrs in presence of 50% heat inactivated human serum; type: functional; conditions: read-out: MIC100
[3] = tested on: Escherichia coli; test: Antibacterial activity against Escherichia coli ATCC 25922 harboring tolC knock-out assessed as inhibition of bacterial growth incubated for 18 hrs; type: functional; conditions: read-out: MIC100
[4] = tested on: Pseudomonas aeruginosa; test: Antibacterial activity against wild-type Pseudomonas aeruginosa PAO1 assessed as inhibition of bacterial growth incubated for 24 hrs; type: functional; conditions: read-out: MIC100
[5] = Cytotoxicity against human HepG2 cells incubated for 40 hrs by celltiter-glo luminescent cell viability assay; type: toxicity, cell-based
[6] = tested on: Acinetobacter baumannii; test: Antibacterial activity against wild-type Acinetobacter baumannii ATCC 19606 assessed as inhibition of bacterial growth incubated for 20 hrs; type: functional; conditions: read-out: MIC100
[7] = tested on: Escherichia coli; test: Antibacterial activity against wild-type Escherichia coli ATCC 25922 assessed as inhibition of bacterial growth incubated for 18 hrs; type: functional; conditions: read-out: MIC100
[8] = tested on: Klebsiella pneumoniae; test: Antibacterial activity against wild-type Klebsiella pneumoniae ATCC 13883 assessed as inhibition of bacterial growth incubated for 18 hrs; type: functional; conditions: read-out: MIC100
[9] = tested on: Escherichia coli; test: Antibacterial activity against Escherichia coli ATCC 25922 harboring hldE knock-out assessed as inhibition of bacterial growth incubated for 18 hrs; type: functional; conditions: read-out: MIC100
[10] = Hemolytic activity in human red blood cells at 400 ug/ml incubated for 45 mins by spectrophotometric analysis relative to control; type: toxicity, cell-based, Erythrocyte; conditions: red blood cells (erythrocytes), at 400 µg/mL, read-out: Activity
[11] = tested on: Escherichia coli; test: Antibacterial activity against wild-type Escherichia coli ATCC 25922 assessed as inhibition of bacterial growth incubated for 18 hrs in presence of 50% heat inactivated human serum; type: functional; conditions: read-out: MIC100
[12] = tested on: Staphylococcus aureus; test: Antibacterial activity against […] assessed as inhibition of bacterial growth incubated for 18 hrs; type: functional; conditions: ATCC 29213, read-out: MIC100
[13] = Binding affinity to gram negative bacterial lipid II assessed as dissociation constant by ITC analysis; parameters: species or system Bacteria
[14] = tested on: Escherichia coli; test: Antibacterial activity against wild-type Escherichia coli ATCC 25922 assessed as inhibition of bacterial growth by measuring fold increase in MIC incubated for 18 hrs in presence of 50% heat inactivated human serum relative to control; type: functional
[15] = tested on: Lipopolysaccharide (LPS); test: Binding affinity to Escherichia coli O55:B5 LPS assessed as dissociation constant by ITC analysis; type: subcellular

| Compound | MeCN percentage at peak elution [1] | MIC [2] | MIC [3] | MIC [4] | IC50 at 40 h [5] | MIC [6] | MIC [7] | MIC [8] | MIC [9] | hemolysis at 0.75 h, 400 ug/ml [10] | MIC [11] | MIC [12] | Kd [13] | fold change (FC) [14] | Kd [15] |
| --- | --- | --- | --- | --- | --- | --- | --- | --- | --- | --- | --- | --- | --- | --- | --- |
| CC[C@H](C)[C@@H](NC(=O)[C@@H](NC(=O)[C@H](CCC(=O)O)NC(=O)[C@H](Cc1ccccc1)NC(=O)[C@@H](CCN)NC(=O)[C@H](C)NC(=O)[C@H](CO)NC(=O)[C@@H](Cc1c[nH]c2ccccc12)NC(=O)[C@@H](CO)NC(=O)CNC(=O)[C@@H](CCN)NC(=O)[C@H](NC(=O)[C@H](C)N)C(C)C)C(C)C)C(=O)N[C@@H](C)C(=O)O | 44.3% | 16 mg/L | 8 mg/L (≈ 5.57 µM) | > 64 mg/L | 121 mg/L (≈ 84.2 µM) | 32 mg/L (≈ 22.3 µM) | 8 mg/L (≈ 5.57 µM) | 4 mg/L (≈ 2.78 µM) | 4 mg/L (≈ 2.78 µM) | 7.9% | 8 mg/L | > 64 mg/L | 3.7 µM |  |  |
| CC[C@H](C)[C@@H](NC(=O)[C@@H](NC(=O)[C@H](CCC(=O)O)NC(=O)[C@H](Cc1ccccc1)NC(=O)[C@@H](CCN)NC(=O)[C@H](CCN)NC(=O)[C@H](CO)NC(=O)[C@@H](Cc1c[nH]c2ccccc12)NC(=O)[C@@H](CO)NC(=O)CNC(=O)[C@@H](CCN)NC(=O)[C@H](NC(=O)[C@H](C)N)C(C)C)C(C)(C)C)C(=O)N[C@@H](C)C(N)=O | 41.8% | 0.125 mg/L | 0.5 mg/L (≈ 0.338 µM) | > 64 mg/L | > 170 mg/L | 64 mg/L (≈ 43.3 µM) | 16 mg/L (≈ 10.8 µM) | 8 mg/L (≈ 5.41 µM) | > 64 mg/L | 6% | 2 mg/L | > 64 mg/L | 2.15 µM | 8 |  |
| CC[C@H](C)[C@H](N)C(=O)N[C@@H](C(=O)N[C@H](CCN)C(=O)NCC(=O)N[C@H](CO)C(=O)N[C@H](Cc1c[nH]c2ccccc12)C(=O)N[C@@H](CO)C(=O)N[C@@H](CCN)C(=O)N[C@H](CCN)C(=O)N[C@@H](Cc1ccccc1)C(=O)N[C@@H](CCC(=O)O)C(=O)N[C@H](C(=O)N[C@@H](C(=O)N[C@@H](C)C(=O)O)[C@@H](C)CC)C(C)C)C(C)C |  |  |  |  | 20 mg/L (≈ 13.3 µM) |  | 1 mg/L (≈ 0.663 µM) | 1 mg/L (≈ 0.663 µM) |  | 56.9% |  |  | 4.8 µM |  | 0.088 µM |
| CC[C@H](C)[C@@H](NC(=O)[C@@H](NC(=O)[C@H](CCC(=O)O)NC(=O)[C@H](Cc1ccccc1)NC(=O)[C@@H](CCN)NC(=O)[C@H](CCN)NC(=O)[C@H](CO)NC(=O)[C@@H](Cc1c[nH]c2ccccc12)NC(=O)[C@@H](CO)NC(=O)CNC(=O)[C@@H](CCN)NC(=O)[C@H](NC(=O)CCCCCN)C(C)C)C(C)C)C(=O)N[C@@H](C)C(=O)O | 40.1% | 2 mg/L | 32 mg/L (≈ 21.2 µM) | > 64 mg/L | > 170 mg/L | 64 mg/L (≈ 42.4 µM) | 64 mg/L (≈ 42.4 µM) | 32 mg/L (≈ 21.2 µM) | 8 mg/L (≈ 5.31 µM) | 3.5% | 2 mg/L | > 64 mg/L |  | 8 |  |
| CC[C@H](C)[C@@H](NC(=O)[C@@H](NC(=O)[C@H](CCC(=O)O)NC(=O)[C@H](Cc1ccccc1)NC(=O)[C@@H](CCN)NC(=O)[C@H](CCN)NC(=O)[C@H](CO)NC(=O)[C@@H](Cc1c[nH]c2ccccc12)NC(=O)[C@@H](CO)NC(=O)CNC(=O)[C@@H](CCN)NC(=O)[C@H](NC(=O)[C@@H](N)C(C)C)C(C)C)C(C)C)C(=O)N[C@@H](C)C(=O)O | 41.5% | 0.5 mg/L | 1 mg/L (≈ 0.669 µM) | 64 mg/L (≈ 42.8 µM) | 87 mg/L (≈ 58.2 µM) | 64 mg/L (≈ 42.8 µM) | 2 mg/L (≈ 1.34 µM) | 2 mg/L (≈ 1.34 µM) | 32 mg/L (≈ 21.4 µM) | 14.6% | 1 mg/L | > 64 mg/L |  | 2 |  |
| CC[C@H](C)[C@@H](NC(=O)[C@@H](NC(=O)[C@H](CCC(=O)O)NC(=O)[C@H](Cc1ccccc1)NC(=O)[C@@H](CCN)NC(=O)[C@H](CCN)NC(=O)[C@H](CCN)NC(=O)[C@@H](Cc1c[nH]c2ccccc12)NC(=O)[C@@H](CO)NC(=O)CNC(=O)[C@@H](CCN)NC(=O)[C@H](N)C(C)C)C(C)C)C(=O)N[C@@H](C)C(=O)O |  |  |  |  | > 170 mg/L |  | > 64 mg/L | > 64 mg/L |  | 1.1% |  |  | 0.8 µM |  |  |
| CC(C)[C@H](NC(=O)[C@H](CCC(=O)O)NC(=O)[C@H](Cc1ccccc1)NC(=O)[C@@H](CCN)NC(=O)[C@H](CCN)NC(=O)[C@H](CO)NC(=O)[C@@H](Cc1c[nH]c2ccccc12)NC(=O)[C@@H](CO)NC(=O)CNC(=O)[C@@H](CCN)NC(=O)[C@H](N)C(C)C)C(=O)N[C@@H](C(=O)N[C@@H](C)C(N)=O)C(C)(C)C |  |  |  |  | 127 mg/L (≈ 91.1 µM) |  | 16 mg/L (≈ 11.5 µM) | 2 mg/L (≈ 1.44 µM) |  | 1.6% |  |  | 0.33 µM |  |  |
| CC[C@H](C)[C@@H](NC(=O)[C@@H](NC(=O)[C@H](CCC(=O)O)NC(=O)[C@H](Cc1ccccc1)NC(=O)[C@@H](CCN)NC(=O)[C@H](CCN)NC(=O)[C@H](CO)NC(=O)[C@@H](Cc1c[nH]c2ccccc12)NC(=O)[C@@H](CO)NC(=O)CNC(=O)[C@@H](CCN)NC(=O)[C@H](NC(=O)CCN)C(C)C)C(C)C)C(=O)N[C@@H](C)C(=O)O | 39.8% |  | 0.5 mg/L (≈ 0.341 µM) | 8 mg/L (≈ 5.46 µM) | > 170 mg/L | 32 mg/L (≈ 21.8 µM) | ≥ 2 mg/L | 2 mg/L (≈ 1.36 µM) | 0.5 mg/L (≈ 0.341 µM) | 0% |  | 64 mg/L (≈ 43.7 µM) | 0.39 µM |  |  |
| CC[C@H](C)[C@@H](NC(=O)[C@@H](NC(=O)[C@H](CCC(=O)O)NC(=O)[C@H](Cc1ccccc1)NC(=O)[C@@H](CCN)NC(=O)[C@H](CCN)NC(=O)[C@H](CO)NC(=O)[C@@H](Cc1c[nH]c2ccccc12)NC(=O)[C@@H](CO)NC(=O)CNC(=O)[C@@H](CCN)NC(=O)[C@H](NC(=O)[C@@H]1CCCN1)C(C)C)C(C)C)C(=O)N[C@@H](C)C(=O)O | 41.9% | 1 mg/L | 2 mg/L (≈ 1.34 µM) | > 64 mg/L | 109 mg/L (≈ 73.1 µM) | 64 mg/L (≈ 42.9 µM) | 4 mg/L (≈ 2.68 µM) | 4 mg/L (≈ 2.68 µM) | 2 mg/L (≈ 1.34 µM) | 5.5% | 1 mg/L | > 64 mg/L |  | 2 |  |
| CC[C@H](C)[C@@H](NC(=O)[C@@H](NC(=O)[C@H](CCC(=O)O)NC(=O)[C@H](Cc1ccccc1)NC(=O)[C@@H](CN)NC(=O)[C@H](CCN)NC(=O)[C@H](CO)NC(=O)[C@@H](Cc1c[nH]c2ccccc12)NC(=O)[C@@H](CO)NC(=O)CNC(=O)[C@@H](CCN)NC(=O)[C@H](N)C(C)C)C(C)C)C(=O)N[C@@H](C)C(=O)O |  |  |  |  | > 170 mg/L |  | > 64 mg/L | > 64 mg/L |  | 1.6% |  |  | 1.17 µM |  |  |
| CC[C@H](N)C(=O)N[C@@H](C(=O)N[C@H](CCN)C(=O)NCC(=O)N[C@H](CO)C(=O)N[C@H](Cc1c[nH]c2ccccc12)C(=O)N[C@@H](CO)C(=O)N[C@@H](CCN)C(=O)N[C@H](CCN)C(=O)N[C@@H](Cc1ccccc1)C(=O)N[C@@H](CCC(=O)O)C(=O)N[C@H](C(=O)N[C@@H](C(=O)N[C@@H](C)C(=O)O)[C@@H](C)CC)C(C)C)C(C)C | 40.7% | 0.5 mg/L | 1 mg/L (≈ 0.676 µM) | 64 mg/L (≈ 43.3 µM) | 95 mg/L (≈ 64.2 µM) | 64 mg/L (≈ 43.3 µM) | 2 mg/L (≈ 1.35 µM) | 2 mg/L (≈ 1.35 µM) | 1 mg/L (≈ 0.676 µM) | 8.8% | 1 mg/L | > 64 mg/L |  | 2 |  |
